Results taken from article PMC9061999, “Application of the Adverse Outcome Pathway Concept to In Vitro Nephrotoxicity Assessment: Kidney Injury due to Receptor-Mediated Endocytosis and Lysosomal Overload as a Case Study” (Frontiers in Toxicology, 2022).

System: NRK-52E cells
Test: LC-MS/MS analysis of intracellular concentration
Type: in vitro ADME, rat
Conditions: for Intracellular accumulation in NRK-52E compared to RPTEC-TERT1 cells: 24 h; for Intracellular concentration after recovery compared to the 24 h time-point: 34 µM for 24 h, then 24 h in fresh medium; for Time course of intracellular concentration: within the 24 h treatment period (1-2 min, 1, 3, 6, 24 h), n = 3
Method: NRK-52E and RPTEC/TERT1 cells were seeded in 12-well plates (120,000 cells per well) and were allowed to grow for 48 h (NRK-52E) or 10 d (RPTEC/TERT1) until they reached 100% confluence. After cells achieved 100% confluence, the supernatant was aspirated, and the cells were washed twice with 1 x PBS. Cells were treated with polymyxins at a final concentration of 34 µM for 24 h. Samples were taken at five different treatment time points (1–2 min, 1, 3, 6, and 24 h). In addition, a recovery sample was taken 24 h after the end of the 24 h treatment period. To this end, the supernatant was aspirated after 24 h treatment and the cells were washed three times with 1 x PBS to remove polymyxin B or colistin residues. Fresh growth medium was added, and the cells were incubated for another 24 h. At the end of each experiment, the cells were washed 3 times with 1 x PBS and trypsinized by adding 200 µL of trypsin. Detached cells were washed with 1,000 µL 1 x PBS and the cells were transferred to LoBind™ tubes (Eppendorf). Cell count was determined using a Fuchs-Rosenthal counting chamber (Hartenstein). Cells were centrifuged for 5 min at 4°C at 10.000 rpm and the supernatant was aspirated. Cells were resuspended in 1,000 µL 1 x PBS and centrifuged for 5 min at 4°C at 10.000 rpm. After centrifugation, the supernatant was aspirated, and the cell pellet was resuspended in 250 µL ammonium acetate buffer (10 mM) and 250 µL of 30% methanol with 1% acetic acid containing polymyxin B respectively colistin as an internal standard. Cells were sonicated for 10 min and centrifuged for 5 min at 4°C at 14.000 rpm. The supernatant was transferred quantitatively into new LoBind™ tubes (Eppendorf) and dried in a centrifugal vacuum concentrator for 2–3 h. To measure compound plastic binding, the empty 12 well plates were washed with 1.5 ml acetonitrile on an orbital shaker for 2 h and supernatant was collected. For sample purification via solid phase extraction, SPE cartridges Strata-X 33 µm polymeric reversed phase, 10 mg/1 ml (Phenomenex) were used. In the conditioning step the cartridges were rinsed with 200 µL methanol (100%) and subsequently with 200 µL ddH2O to activate the sorbent bed. The dried samples were dissolved in 200 µL 1% acetic acid and transferred onto the SPE cartridge. The SPE cartridge were rinsed once with 200 µL 1% acetic acid. Impurities were removed by rinsing the cartridge once with 200 µL 10% methanol. A fresh LoBind™ tube (Eppendorf) was placed under the SPE cartridge to eluate the samples by rinsing twice with 200 µL 90% methanol containing 1% acetic acid. The samples were dried in a centrifugal vacuum concentrator for 2–3 h. All samples were stored at −20°C until LC-MS/MS analysis.
A triple quadrupole mass spectrometer equipped with a Turbo-Ion® Spray source (QTrap API 2000; AB Sciex Instruments) was used for analyses. The mass spectrometer was coupled to an Agilent 1100 HPLC system consisting of a binary pump system, a vacuum degasser and an autosampler (Agilent 1,100). Chromatographic separation was performed at 40°C with a column oven (Knauer) on a Synergi Hydro-RP column (2 mm × 150 mm, 4 μm, 80 Å; Phenomenex) coupled to a precolumn (SecurityGuard™ Cartridges, AQ C18 4 × 2.0 mm) using a binary step gradient at a flow rate of 0.2 ml/min with the following gradient: 0 min 100% A, 15 min 0% A, 20 min 0% A, 21 min 100% A, and 30 min 100% A. Mobile phase consisted of 3% acetonitrile containing 1% acetic acid and (solvent A) and 97% acetonitrile containing 1% acetic acid (solvent B). The injection volume was set to 10 µL and the total analysis time was 30 min. Following chromatographic separation, multiple ion monitoring was used to detect the triply charged, twice charged, and single charged ions of polymyxins (Table 1). […]

Substance	Intracellular accumulation in NRK-52E compared to RPTEC-TERT1 cells (34 µM)	Intracellular concentration compared to polymyxin B (NRK-52E, 34 µM)	Intracellular concentration after recovery compared to the 24 h time-point (NRK-52E)	Time course of intracellular concentration (NRK-52E, 34 µM)
Colistin	significantly lower in NRK-52E cells	lower intracellular concentrations	declined during the 24 h off-dose recovery period	continuous rise in the intracellular concentration
Polymyxin B	significantly lower in NRK-52E cells	–	declined during the 24 h off-dose recovery period	continuous rise in the intracellular concentration
